The target of one assay is T1, PcSTING (Prevotella corporis, UniProt A0A133PTK7).
T1 construct: gene HMPREF3226_02659; C-terminal STING domain only; N-terminal His6-MBP or His6-SUMO tag removed by TEV; E. coli BL21(DE3); homodimer
As to the kind of experiment: crystal structure; LC-MS/MS of co-purified ligand. Type of assay: binding. Conditions: co-purified endogenous ligand from E. coli; 2.25 A for the SeMet form.

In assay [1] the target is full-length TIR-STING protein from Myroides sp. ZB35 (MyTIR-STING) (Myroides sp. ZB35). As to the kind of experiment: SEC; 16/60 Superdex 200 increase column; 20 mM Tris pH 8.0, 200 mM NaCl, 5% glycerol, 1 mM TCEP; no c-di-GMP added. (In general: SEC sorts molecules by how far they enter the pores of the column.)

T1 sequence (A0A133PTK7 entry or part of it): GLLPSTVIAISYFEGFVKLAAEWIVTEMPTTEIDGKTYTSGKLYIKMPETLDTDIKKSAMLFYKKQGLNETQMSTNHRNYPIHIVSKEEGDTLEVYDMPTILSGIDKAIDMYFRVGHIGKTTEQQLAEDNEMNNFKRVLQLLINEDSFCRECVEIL

Turning to `Nc1nc2c(ncn2[C@@H]2O[C@@H]3COP(=O)(O)O[C@H]4[C@@H](O)[C@H](n5cnc6c(=O)[nH]c(N)nc65)O[C@@H]4COP(=O)(O)O[C@H]3[C@H]2O)c(=O)[nH]1` [c-di-GMP], the “crystal structure; LC-MS/MS of co-purified ligand” value on PcSTING was “PcSTING/c-di-GMP and MySTING/c-di-GMP complexes have been deposited in the Protein Data Bank”.

For “full-length TIR-STING protein from Myroides sp. ZB35 (MyTIR-STING) (natural protein)”, the stoichiometry N (commonly the number of molecules, sites or subunits per partner or assembly) in assay [1] is 2.

The record behind these values is PMC8748872, “Crystal structure and functional implication of bacterial STING” (Nature Communications, 2022).
